Measured values from patent publication US20210113522A1, “COUMARIN DERIVATIVE AS ANTI-ASTHMATIC AGENT, PHARMACEUTICAL COMPOSITION THEREOF, ITS PREPARATION AND USE” (I-NOVA MEDICINSKA ISTRAZIVANJA D.O.O., priority 2017, published 2021).

Tested on: croton oil-induced ear edema
Test: Croton oil-induced ear edema in mice
Type: in vivo, Balb/c mice
Settings: dexamethasone 1 mg/kg, 1 2 mg/kg
Description: The presents study aims to detect the inflammatory/anti-inflammatory potential effects of compound 1 in a model of acute skin inflammation induced by local application of phlogistic agent croton oil in Balb/c mice. The technique for croton oil-induced ear edema in mice, originally described by Tubaro et al., was followed, with modifications; see literature references 16 and 17: • 16) A. Tubaro, P. Dri, G. Delbello, C. Zilli, R. Della Loggia: The croton oil ear test revisited, Agents Actions 17 (1986) 347-349. • 17) G. Coruzzi, C. Pozzoli, M. Adami, D. Grandi, N. Guido, R. Smits, I. de Esch and R. Leurs: Strain-dependent effects of the histamine H4 receptor antagonist JNJ7777120 in a murine model of acute skin inflammation, Experimental Dermatology 21 (2011) 32-37.
Mice (total 40) were separated into 4 groups (n=10). Each group was treated under different regimen:
Cutaneous inflammation was induced in conscious mice by topical application of croton oil (5% in acetone).
Six hours after croton oil application, mice were euthanized by light ether anaesthesia, followed by cervical dislocation; both left (acetone) and right (croton oil in acetone) ears were removed, by cutting horizontally across the indentation at the base of the ear. For each mouse, the extent of the oedema was expressed as the difference in weight (Δ [mg]) between right (inflamed) and left (uninflamed) ear. The percentage increase in the oedema of the treated ear was calculated by the following formula: […]
The presents study aims to detect the inflammatory/anti-inflammatory potential effects of compound 1 in a model of acute skin inflammation induced by local application of phlogistic agent croton oil in Balb/c mice. The technique for croton oil-induced ear edema in mice, originally described by Tubaro et al., was followed, with modifications; see literature references 16 and 17.
In preliminary experiments, the effect of subcutaneous (s.c.) administration of saline, 100% DMSO or 20% 2-hydroxypropyl-β-cyclodextrin was investigated to check the vehicle effects on ear inflammation.
The statistical significance between the groups was assessed by one-way analysis of variance (ANOVA) followed by a post hoc Tukey test. The accepted level of significance for the test was P<0.05. All tests were carried out using GraphPad Software (San Diego, Calif., USA).

O=c1oc2cc(O)cc(O)c2c(O)c1-c1coc2c1c(=O)oc1cc(O)cc(O)c12 [Compound 1, 7,9-dihydroxy-3-(4,5,7-trihydroxy-2-oxo-2H-chromene-3-yl)-4H-furo[3,2-c]chromen-4-one]
Ear edema Δm (right minus left ear) (6 h after croton oil): 0.0321 g
Percentage of increasing the ear edema (6 h after croton oil): 92.98%
Maximal inhibition of croton oil-induced ear oedema (Balb/c mice, 6 h): ~40%
Left ear m (left ear: 80% 2HPβCD + 20% DMSO (uninflamed), 6 h): 0.0344 g
Right ear m (right ear: substance + croton oil after 30 min, 6 h): 0.0665 g
